Test results published in US9212182B2, “Bicyclic sulfonamide compounds as sodium channel inhibitors” (AMGEN INC., priority 2013, dated 2015).
Where two headings read alike, the source gives them in different places.

Experiments:
Nav 1.7 = Nav 1.7 (Homo sapiens (Human), UniProt Q15858); assay: in-vitro Nav 1.7 PX (IC50); assay type: cell-based
Nav 1.5 = Nav 1.5 (Homo sapiens (Human), UniProt Q14524); assay: in-vitro Nav 1.5 PX (IC50); conditions: read-out: Nav 1.5 PX IC50
[1] = in-vitro Nav 1.5 PX data (PatchXpress)

Sequence of Nav 1.7 (Q15858 whole entry): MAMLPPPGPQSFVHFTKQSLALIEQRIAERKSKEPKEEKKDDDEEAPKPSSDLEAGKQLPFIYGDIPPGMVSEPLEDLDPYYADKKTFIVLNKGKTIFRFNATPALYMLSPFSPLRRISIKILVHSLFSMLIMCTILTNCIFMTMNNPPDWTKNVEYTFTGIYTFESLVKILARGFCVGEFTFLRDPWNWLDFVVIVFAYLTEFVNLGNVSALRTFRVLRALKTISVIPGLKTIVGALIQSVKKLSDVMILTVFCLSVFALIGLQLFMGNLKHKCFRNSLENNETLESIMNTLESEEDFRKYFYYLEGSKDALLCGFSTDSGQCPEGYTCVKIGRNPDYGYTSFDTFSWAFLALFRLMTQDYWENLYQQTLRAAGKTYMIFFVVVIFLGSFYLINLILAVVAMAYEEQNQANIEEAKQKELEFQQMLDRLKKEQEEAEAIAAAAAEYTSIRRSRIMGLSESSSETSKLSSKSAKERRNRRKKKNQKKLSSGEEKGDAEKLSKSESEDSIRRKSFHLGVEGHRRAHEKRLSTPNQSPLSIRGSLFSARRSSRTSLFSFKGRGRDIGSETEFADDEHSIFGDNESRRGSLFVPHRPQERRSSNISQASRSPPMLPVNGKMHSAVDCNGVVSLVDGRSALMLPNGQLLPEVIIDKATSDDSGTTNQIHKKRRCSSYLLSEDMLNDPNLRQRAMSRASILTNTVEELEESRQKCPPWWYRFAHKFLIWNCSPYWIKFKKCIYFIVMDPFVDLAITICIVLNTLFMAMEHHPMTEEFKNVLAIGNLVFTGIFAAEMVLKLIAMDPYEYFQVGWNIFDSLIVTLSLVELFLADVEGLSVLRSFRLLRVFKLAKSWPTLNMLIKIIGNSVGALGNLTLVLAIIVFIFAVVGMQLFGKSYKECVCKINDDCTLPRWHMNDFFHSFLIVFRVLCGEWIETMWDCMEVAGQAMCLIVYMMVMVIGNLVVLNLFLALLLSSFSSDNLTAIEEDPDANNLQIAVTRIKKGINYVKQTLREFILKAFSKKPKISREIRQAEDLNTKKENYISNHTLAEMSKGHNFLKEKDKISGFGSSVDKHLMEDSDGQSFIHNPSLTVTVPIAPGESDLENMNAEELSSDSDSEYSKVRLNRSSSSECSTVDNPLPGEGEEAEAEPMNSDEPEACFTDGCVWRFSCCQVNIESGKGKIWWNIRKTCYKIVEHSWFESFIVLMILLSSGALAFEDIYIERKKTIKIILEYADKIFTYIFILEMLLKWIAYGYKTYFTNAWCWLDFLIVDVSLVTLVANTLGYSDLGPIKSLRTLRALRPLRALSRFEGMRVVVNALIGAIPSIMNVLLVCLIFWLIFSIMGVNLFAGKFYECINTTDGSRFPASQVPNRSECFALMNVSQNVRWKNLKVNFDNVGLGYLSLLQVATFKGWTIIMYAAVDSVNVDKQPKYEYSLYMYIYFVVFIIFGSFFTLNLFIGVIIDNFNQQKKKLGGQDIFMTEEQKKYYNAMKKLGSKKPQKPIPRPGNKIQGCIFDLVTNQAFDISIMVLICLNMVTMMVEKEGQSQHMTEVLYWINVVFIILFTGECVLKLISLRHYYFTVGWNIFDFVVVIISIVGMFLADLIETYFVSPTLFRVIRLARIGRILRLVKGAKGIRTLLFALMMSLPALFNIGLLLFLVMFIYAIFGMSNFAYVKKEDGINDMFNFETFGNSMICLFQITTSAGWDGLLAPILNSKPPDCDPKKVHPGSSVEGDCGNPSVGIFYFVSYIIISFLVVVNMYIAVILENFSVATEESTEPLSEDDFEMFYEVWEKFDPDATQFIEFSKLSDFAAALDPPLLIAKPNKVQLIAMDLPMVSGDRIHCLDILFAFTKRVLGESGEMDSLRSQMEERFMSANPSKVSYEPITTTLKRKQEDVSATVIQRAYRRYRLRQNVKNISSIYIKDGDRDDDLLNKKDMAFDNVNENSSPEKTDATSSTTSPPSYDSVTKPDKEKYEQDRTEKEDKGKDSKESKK
Sequence of Nav 1.5 (Q14524 whole entry): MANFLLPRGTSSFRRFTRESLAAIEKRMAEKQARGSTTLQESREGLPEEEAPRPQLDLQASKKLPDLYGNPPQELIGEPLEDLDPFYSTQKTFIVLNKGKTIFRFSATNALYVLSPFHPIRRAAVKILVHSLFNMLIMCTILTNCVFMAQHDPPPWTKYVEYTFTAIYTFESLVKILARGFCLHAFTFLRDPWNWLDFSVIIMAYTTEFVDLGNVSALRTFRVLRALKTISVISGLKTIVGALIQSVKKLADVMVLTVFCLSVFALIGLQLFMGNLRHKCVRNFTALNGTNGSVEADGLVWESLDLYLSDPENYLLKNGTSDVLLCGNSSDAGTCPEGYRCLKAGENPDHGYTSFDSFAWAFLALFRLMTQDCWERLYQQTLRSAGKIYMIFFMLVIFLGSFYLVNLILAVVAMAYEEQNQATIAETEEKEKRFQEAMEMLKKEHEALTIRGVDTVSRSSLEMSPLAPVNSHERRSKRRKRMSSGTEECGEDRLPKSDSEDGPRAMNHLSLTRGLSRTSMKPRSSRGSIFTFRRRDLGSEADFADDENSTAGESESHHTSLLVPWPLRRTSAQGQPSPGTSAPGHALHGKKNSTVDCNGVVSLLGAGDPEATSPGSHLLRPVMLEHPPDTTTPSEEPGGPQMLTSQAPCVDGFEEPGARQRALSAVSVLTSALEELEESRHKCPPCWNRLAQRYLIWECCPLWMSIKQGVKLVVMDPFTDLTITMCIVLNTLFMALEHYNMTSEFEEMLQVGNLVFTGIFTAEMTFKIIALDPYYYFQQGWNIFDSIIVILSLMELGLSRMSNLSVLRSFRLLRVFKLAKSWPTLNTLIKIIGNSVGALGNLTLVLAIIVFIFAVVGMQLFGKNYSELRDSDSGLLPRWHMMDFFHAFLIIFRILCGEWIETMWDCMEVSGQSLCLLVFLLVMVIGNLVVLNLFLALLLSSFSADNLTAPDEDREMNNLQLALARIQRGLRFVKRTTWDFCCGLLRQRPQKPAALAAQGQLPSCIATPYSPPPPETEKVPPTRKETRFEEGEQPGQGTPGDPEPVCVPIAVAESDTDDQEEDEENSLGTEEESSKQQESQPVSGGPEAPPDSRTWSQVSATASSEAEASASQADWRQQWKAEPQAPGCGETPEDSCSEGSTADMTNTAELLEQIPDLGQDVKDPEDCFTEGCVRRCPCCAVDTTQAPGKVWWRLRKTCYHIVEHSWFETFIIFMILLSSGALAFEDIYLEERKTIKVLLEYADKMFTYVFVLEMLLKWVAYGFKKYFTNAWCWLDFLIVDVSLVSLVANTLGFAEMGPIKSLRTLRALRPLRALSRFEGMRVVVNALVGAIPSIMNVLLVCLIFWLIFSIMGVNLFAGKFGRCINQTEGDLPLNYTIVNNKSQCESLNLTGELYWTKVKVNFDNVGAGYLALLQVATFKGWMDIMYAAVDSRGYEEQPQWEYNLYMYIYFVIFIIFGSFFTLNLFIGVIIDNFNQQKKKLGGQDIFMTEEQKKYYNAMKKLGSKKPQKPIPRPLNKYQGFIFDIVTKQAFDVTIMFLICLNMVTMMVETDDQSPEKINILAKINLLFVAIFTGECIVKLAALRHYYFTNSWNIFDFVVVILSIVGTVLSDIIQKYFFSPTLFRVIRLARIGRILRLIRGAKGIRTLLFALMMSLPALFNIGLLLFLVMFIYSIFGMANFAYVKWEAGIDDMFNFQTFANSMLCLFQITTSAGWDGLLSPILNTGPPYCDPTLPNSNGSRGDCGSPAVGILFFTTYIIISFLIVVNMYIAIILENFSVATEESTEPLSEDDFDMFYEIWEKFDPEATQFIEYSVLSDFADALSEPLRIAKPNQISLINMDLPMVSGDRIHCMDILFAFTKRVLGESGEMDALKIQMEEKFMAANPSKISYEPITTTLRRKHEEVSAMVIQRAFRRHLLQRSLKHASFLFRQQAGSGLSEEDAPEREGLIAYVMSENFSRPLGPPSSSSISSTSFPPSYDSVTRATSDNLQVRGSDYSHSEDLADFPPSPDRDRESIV

IC50 (Nav 1.7; in-vitro Nav 1.7 PX data) | SMILES | IC50 (Nav 1.7) | IC50 (Nav 1.5) | other results
14 nM | COc1cc(-c2cc(OC)c(-n3c(=O)ccc4cc(S(=O)(=O)Nc5ccon5)ccc43)cc2F)ccc1C [Example 698, 1-(2-fluoro-3′,5-dimethoxy-4′-methyl-4-biphenylyl)-N-3-isoxazolyl-2-oxo-1,2-dihydro-6-quinolinesulfonamide] | – | – | IC50 (Nav 1.5; in-vitro Nav 1.5 PX data): > 10000 nM
14 nM | COc1cc(-c2ccc(F)c(C)c2)c(F)cc1-n1c(=O)ccc2cc(S(=O)(=O)Nc3ccon3)c(F)cc21 [Example 981, 1-(2,4′-difluoro-5-methoxy-3′-methyl-4-biphenylyl)-7-fluoro-N-3-isoxazolyl-2-oxo-1,2-dihydro-6-quinolinesulfonamide] | – | – | IC50 (Nav 1.5; in-vitro Nav 1.5 PX data): 496 nM
– | COc1cc(-c2cc(F)cc(Cl)c2)c(F)cc1-n1c(=O)ccc2cc(S(=O)(=O)Nc3ccon3)ccc21 (atropisomer, axis not shown; (P)) [Example 477, (P)-1-(3′-chloro-2,5′-difluoro-5-methoxy-4-biphenylyl)-N-3-isoxazolyl-2-oxo-1,2-dihydro-6-quinolinesulfonamide] | 7 nM | > 30000 nM | –
– | COc1cc(-c2cccc(F)c2)c(Cl)cc1-n1c(=O)ccc2cc(S(=O)(=O)Nc3cccnn3)ccc21 (atropisomer, axis not shown; (P)) [Example 467, (P)-1-(2-chloro-3′-fluoro-5-methoxy-[1,1′-biphenyl]-4-yl)-2-oxo-N-(pyridazin-3-yl)-1,2-dihydroquinoline-6-sulfonamide] | 13 nM | > 30000 nM | –
– | COc1cc(-c2cccc(F)c2)c(Cl)cc1-n1c(=O)ccc2cc(S(=O)(=O)Nc3nncs3)ccc21 (atropisomer, axis not shown; (P)) [Example 353, (P)-1-(2-chloro-3′-fluoro-5-methoxy-[1,1′-biphenyl]-4-yl)-2-oxo-N-(1,3,4-THIADIAZOL-2-yl)-1,2-dihydroquinoline-6-sulfonamide] | 12 nM | > 30000 nM | –
– | COc1cc(-c2cc(OC)c(-n3c(=O)ccc4cc(S(=O)(=O)Nc5ncccn5)ccc43)cc2F)ccc1Cl (atropisomer, axis not shown; (P)) [Example 685, (P)-1-(4′-chloro-2-fluoro-3′,5-dimethoxy-4-biphenylyl)-2-oxo-N-2-pyrimidinyl-1,2-dihydro-6-quinolinesulfonamide] | – | – | IC50 (Nav 1.5; [1]): > 10000 nM
– | COc1cc(-c2cccc(F)c2)c(Cl)cc1-n1c(=O)ccc2cc(S(=O)(=O)Nc3ccncn3)ccc21 (atropisomer, axis not shown; (P)) [Example 465, (P)-1-(2-chloro-3′-fluoro-5-methoxy-[1,1′-biphenyl]-4-yl)-2-oxo-N-(pyrimidin-4-yl)-1,2-dihydroquinoline-6-sulfonamide] | – | > 30000 nM | –
14 nM | COc1cc(Cl)cc(-c2cc(OC)c(-n3c(=O)ccc4cc(S(=O)(=O)Nc5ncccn5)ccc43)cc2F)c1 [Example 924, 1-(3′-chloro-2-fluoro-5,5′-dimethoxy-4-biphenylyl)-2-oxo-N-2-pyrimidinyl-1,2-dihydro-6-quinolinesulfonamide] | – | – | IC50 (Nav 1.5; in-vitro Nav 1.5 PX data): > 10000 nM
– | COc1cc(-c2cc(F)cc(Cl)c2)c(Cl)cc1-n1c(=O)ccc2cc(S(=O)(=O)Nc3ccon3)ccc21 (atropisomer, axis not shown; (P)) [Example 461, (P)-1-(2,3′-dichloro-5′-fluoro-5-methoxy-[1,1′-biphenyl]-4-yl)-N-(isoxazol-3-yl)-2-oxo-1,2-dihydroquinoline-6-sulfonamide] | 6 nM | > 30000 nM | –
– | COc1cc(-c2cc(F)cnc2OC)ccc1-n1c(=O)ccc2cc(S(=O)(=O)Nc3ccon3)ccc21 (atropisomer, axis not shown; (P)) [Example 581, (P)-1-(4-(5-fluoro-2-methoxy-3-pyridinyl)-2-methoxyphenyl)-N-3-isoxazolyl-2-oxo-1,2-dihydro-6-quinolinesulfonamide] | 102 nM | > 10000 nM | –
4 nM | COc1cc(-c2ccc(Cl)c(C)c2)c(F)cc1-n1c(=O)ccc2cc(S(=O)(=O)Nc3ncns3)ccc21 [Example 1075, 1-(4′-chloro-2-fluoro-5-methoxy-3′-methyl-4-biphenylyl)-2-oxo-N-1,2,4-thiadiazol-5-yl-1,2-dihydro-6-quinolinesulfonamide] | – | – | IC50 (Nav 1.5; in-vitro Nav 1.5 PX data): > 10000 nM
– | COc1cc(-c2cccc(C(F)(F)F)c2)c(Cl)cc1-n1c(=O)ccc2cc(S(=O)(=O)Nc3ccon3)ccc21 (atropisomer, axis not shown; (P)) [Example 533, (P)-1-(2-chloro-5-methoxy-3′-(trifluoromethyl)-[1,1′-biphenyl]-4-yl)-N-(isoxazol-3-yl)-2-oxo-1,2-dihydroquinoline-6-sulfonamide] | 4 nM | > 30000 nM | –
– | COc1cc(-c2cc(OC)c(-n3c(=O)ccc4cc(S(=O)(=O)Nc5cccnn5)ccc43)cc2F)ccc1Cl (atropisomer, axis not shown; (P)) [Example 628, (P)-1-(4′-chloro-2-fluoro-3′,5-dimethoxy-4-biphenylyl)-2-oxo-N-3-pyridazinyl-1,2-dihydro-6-quinolinesulfonamide] | – | – | IC50 (Nav 1.5; [1]): > 10000 nM
28 nM | COc1cc(-c2cccc(C(F)(F)F)c2)c(F)cc1-n1c(=O)ccc2cc(S(=O)(=O)Nc3ncco3)ccc21 [Example 806, 1-(2-fluoro-5-methoxy-3′-(trifluoromethyl)-4-biphenylyl)-N-1,3-oxazol-2-yl-2-oxo-1,2-dihydro-6-quinolinesulfonamide] | – | – | –
– | COc1cc(-c2ccc(Cl)c(C)c2)c(C)cc1-n1c(=O)ccc2cc(S(=O)(=O)Nc3ccon3)ccc21 (atropisomer, axis not shown; (P)) [Example 421, (P)-1-(4′-chloro-5-methoxy-2,3′-dimethyl-4-biphenylyl)-N-3-isoxazolyl-2-oxo-1,2-dihydro-6-quinolinesulfonamide] | 16 nM | – | –
89 nM | COc1cc(-c2cccc3c2OCC3)ccc1-n1c(=O)ccc2cc(S(=O)(=O)Nc3ccon3)ccc21 [Example 789, 1-(4-(2,3-dihydro-1-benzofuran-7-yl)-2-methoxyphenyl)-N-3-isoxazolyl-2-oxo-1,2-dihydro-6-quinolinesulfonamide] | – | – | –
– | COc1cc(Br)c(Cl)cc1-n1c(=O)ccc2cc(S(=O)(=O)Nc3ccon3)ccc21 (atropisomer, axis not shown; (P)) [Example 473, (P)-1-(4-bromo-5-chloro-2-methoxyphenyl)-N-(isoxazol-3-yl)-2-oxo-1,2-dihydroquinoline-6-sulfonamide] | 178 nM | – | –
163 nM | COc1ccc(-c2cc(F)ccc2F)cc1-n1c(=O)ccc2cc(S(=O)(=O)Nc3ccon3)ccc21 [Example 840, 1-(2′,5′-difluoro-4-methoxy-3-biphenylyl)-N-3-isoxazolyl-2-oxo-1,2-dihydro-6-quinolinesulfonamide] | – | – | –
694 nM | COc1cc(CC2CCOCC2)c(F)cc1-n1c(=O)ccc2cc(S(=O)(=O)Nc3ccon3)ccc21 [Example 1121, 1-(5-fluoro-2-methoxy-4-(tetrahydro-2H-pyran-4-ylmethyl)phenyl)-N-3-isoxazolyl-2-oxo-1,2-dihydro-6-quinolinesulfonamide] | – | – | –
– | COc1cc(-c2ccc(F)c(C)c2)c(F)cc1-n1c(=O)cnc2cc(S(=O)(=O)Nc3ccon3)ccc21 [Example 1194, 1-(2,4′-difluoro-5-methoxy-3′-methyl-4-biphenylyl)-N-3-isoxazolyl-2-oxo-1,2-dihydro-6-quinoxalinesulfonamide] | 56 nM | – | –

SMILES | IC50 (Nav 1.7; in-vitro Nav 1.7 PX data) | IC50 (Nav 1.7) | IC50 (Nav 1.5) | other results
Cc1cc(-c2cc(C)c(-n3c(=O)ccc4cc(S(=O)(=O)Nc5ncccn5)ccc43)cc2F)ccc1Cl (atropisomer, axis not shown; (P)) [Example 649] | 49 nM | – | – | –
COc1cc(-c2cc(F)cc(C(F)(F)F)c2)ccc1-n1c(=O)ccc2cc(S(=O)(=O)Nc3ncccn3)ccc21 [Example 1097] | 50 nM | – | – | –
